In US10208015B2, “Aryl-triazolyl pyridines as pest control agents” (BAYER ANIMAL HEALTH GMBH, priority 2014, dated 2019):

Assays:
Lucilia cuprina = Lucilia cuprina test; assay type: in vivo; conditions: application rate 100 ppm, L1 larvae, after 2 days
Procedure: (§1) • Solvent: dimethyl sulphoxide
(§2) To produce a suitable preparation of active compound, 10 mg of active compound are mixed with 0.5 ml of dimethyl sulphoxide, and the concentrate is diluted with water to the desired concentration.
About 20 L1 larvae of the Australian sheep blowfly (Lucilia cuprina) are transferred into a test vessel containing minced horsemeat and the active compound preparation of the desired concentration.
After 2 days, the kill in % is determined. 100% means that all the larvae have been killed; 0% means that no larvae have been killed.

Musca domestica = Musca domestica test; assay type: in vivo; conditions: application rate 100 ppm, adult houseflies, after 2 days
Procedure: as §1, §2
Vessels containing a sponge treated with sugar solution and the active compound preparation of the desired concentration are populated with 10 adult houseflies (Musca domestica).
After 2 days, the kill in % is determined. 100% means that all of the flies have been killed; 0% means that none of the flies have been killed.

[1] = tested on: Boophilus microplus Parkhurst strain, SP-resistant; assay: Boophilus microplus dip test; assay type: in vivo; conditions: application rate 100 ppm, assessed after 7 days
Procedure: Boophilus microplus—Dip Test
• Test animals: cattle ticks (Boophilus microplus) Parkhurst strain, SP-resistant • Solvent: dimethyl sulphoxide
10 mg of active compound are dissolved in 0.5 ml of dimethyl sulphoxide. To produce a suitable formulation, the active compound solution is diluted with water to the concentration desired in each case.
This active compound preparation is pipetted into tubes. 8-10 engorged adult female cattle ticks (Boophilus microplus) are transferred into a further tube with holes. The tube is immersed into the active compound preparation, and all the ticks are completely wetted. After the liquid has run out, the ticks are transferred on filter discs into plastic dishes and stored in a climate-controlled room.
Efficacy is assessed after 7 days by laying of fertile eggs. Eggs which are not visibly fertile are stored in a climate-controlled cabinet until the larvae hatch after about 42 days. An efficacy of 100% means that none of the ticks has laid any fertile eggs; 0% means that all the eggs are fertile.

Phaedon cochleariae = Phaedon cochleariae spray test; assay type: in vivo; conditions: application rate 100 g/ha, after 7 days
Procedure: Phaedon Cochleariae—Spray Test
(§3) • Solvent: 78.0 parts by weight of acetone • 1.5 parts by weight of dimethylformamide • Emulsifier: alkylaryl polyglycol ether
(§4) To produce a suitable preparation of active compound, 1 part by weight of active compound is dissolved using the stated parts by weight of solvent and made up with water containing an emulsifier concentration of 1000 ppm until the desired concentration is attained. To produce further test concentrations, the preparation is diluted with emulsifier-containing water.
After 7 days, the efficacy in % is determined. 100% means that all the beetle larvae have been killed; 0% means that no beetle larvae have been killed.

Ctenocephalides felis [2] = assay: Ctenocephalides felis in vitro contact test with adult cat fleas; assay type: in vivo; conditions: application rate 500 g/ha (5 μg/cm^2), after 48 h
Procedure: Ctenocephalides felis—In Vitro Contact Tests with Adult Cat Fleas
For the coating of the test tubes, 9 mg of active compound are first dissolved in 1 ml of acetone p.a. and then diluted to the desired concentration with acetone p.a. 250 μl of the solution are distributed homogeneously on the inner walls and the base of a 25 ml test tube by turning and rocking on an orbital shaker (rocking rotation at 30 rpm for 2 h). With 900 ppm active compound solution and internal surface 44.7 cm^2, given homogeneous distribution, an area-based dose of 5 μg/cm^2 is achieved.
After the solvent has evaporated off, the tubes are populated with 5-10 adult cat fleas (Ctenocephalides felis), sealed with a perforated plastic lid and incubated in a horizontal position at room temperature and ambient humidity. After 48 h, efficacy is determined. To this end, the test tubes are stood upright and the fleas are knocked to the base of the tube. Fleas which remain motionless at the base or move in an uncoordinated manner are considered to be dead or moribund.
100% efficacy means that all the fleas were dead or moribund. 0% efficacy means that no fleas were harmed.

Spodoptera frugiperda = Spodoptera frugiperda spray test; assay type: in vivo; conditions: application rate 100 g/ha, after 7 days
Procedure: Spodoptera Frugiperda—Spray Test
as §3, §4
Leaf discs of maize (Zea mays) are sprayed with an active compound preparation of the desired concentration and, after drying, populated with caterpillars of the armyworm (Spodopterafrugiperda).
After 7 days, the efficacy in % is determined. 100% means that all the caterpillars have been killed; 0% means that no caterpillars have been killed.

Ctenocephalides felis [3] = assay: Ctenocephalides felis oral test; assay type: in vivo; conditions: application rate 100 ppm in citrated cattle blood, after 2 days
Source text: Ctenocephalides felis—Oral Test • Solvent: dimethyl sulphoxide […] Dilution with citrated cattle blood gives the desired concentration. About 20 unfed adult cat fleas (Ctenocephalides felis) are placed into a chamber which is closed at the top and bottom with gauze. A metal cylinder whose bottom end is closed with parafilm is placed onto the chamber. The cylinder contains the blood/active compound preparation, which can be imbibed by the fleas through the parafilm membrane.

Boophilus microplus = Boophilus microplus injection test; assay type: in vivo; conditions: application rate 20 μg/animal, assessed after 7 days
Procedure: Boophilus microplus—Injection Test • Solvent: dimethyl sulphoxide […] The animals are transferred into dishes and kept in a climate-controlled room. Efficacy is assessed after 7 days by laying of fertile eggs. Eggs which are not visibly fertile are stored in a climate-controlled cabinet until the larvae hatch after about 42 days.

[4] = logP by HPLC on reversed-phase column (C18), EEC Directive 79/831 Annex V.A8; assay type: physicochemical; conditions: HPLC, C18, acetonitrile (0.1% formic acid)/water (0.09% formic acid) gradient
Tetranychus urticae = Tetranychus urticae spray test, OP-resistant; assay type: in vivo; conditions: after 6 days
Procedure: Tetranychus Urticae—Spray Test, OP-Resistant
as §3
To produce further test concentrations, the preparation is diluted with emulsifier-containing water.
After 6 days, the efficacy in % is determined. 100% means that all the spider mites have been killed; 0% means that none of the spider mites have been killed.

Compound	efficacy (kill in %) (Lucilia cuprina)	efficacy (kill in %) (Musca domestica)	efficacy (laying of fertile eggs) [1]	efficacy in % (Phaedon cochleariae)	efficacy (fleas dead or moribund) (Ctenocephalides felis [2])	efficacy in % (Spodoptera frugiperda)	efficacy (kill in %) (Ctenocephalides felis [3])	efficacy (laying of fertile eggs) (Boophilus microplus)	logP [4]	efficacy in % (Tetranychus urticae; application rate 100 g/ha)	efficacy in % (Tetranychus urticae; application rate 20 g/ha)
Cc1ncc(-c2cn(-c3c(Cl)cc(C(F)(C(F)(F)F)C(F)(F)F)cc3Cl)nn2)cc1C(=O)NC1(C#N)CC1 [Example 6]	100%	100%	100%	100%	100%	100%	100%	100%	3.5	100%	–
Cc1cc(C(F)(C(F)(F)F)C(F)(F)F)cc(Br)c1-n1cc(-c2cnc(Cl)c(C(=O)NC3CC3)c2)nn1 [Example 22]	100%	100%	100%	–	–	–	100%	100%	3.9	–	–
COc1ncc(-c2cn(-c3c(C)cc(C(F)(C(F)(F)F)C(F)(F)F)cc3C)nn2)cc1C(=O)NC1(C#N)CC1 [Example 7]	100%	–	–	100%	–	100%	100%	100%	4.2	–	–
CCNC(=O)c1cc(-c2cn(-c3c(C)cc(C(F)(C(F)(F)F)C(F)(F)F)cc3CC)nn2)cnc1Cl [Example 25]	100%	80%	100%	–	–	–	100%	100%	4.1	–	–
CCNC(=O)c1cc(-c2cn(-c3c(C)cc(C(F)(C(F)(F)F)C(F)(F)F)cc3Br)nn2)cnc1Cl [Example 27]	100%	100%	100%	–	–	–	100%	100%	3.9	–	–
COc1ncc(-c2cn(-c3c(C)cc(C(F)(C(F)(F)F)C(F)(F)F)cc3C)nn2)cc1C(=O)NC1CC1 [Example 11]	100%	100%	–	100%	–	100%	100%	100%	4.3	–	90%
CCc1cc(C(F)(C(F)(F)F)C(F)(F)F)cc(C)c1-n1cc(-c2cnc(Cl)c(C(=O)N(C)C3CC3)c2)nn1 [Example 19]	100%	80%	100%	–	–	–	100%	100%	4.6	–	–
CCc1cc(C(F)(C(F)(F)F)C(F)(F)F)cc(C)c1-n1cc(-c2cnc(Cl)c(C(=O)NC3CC3)c2)nn1 [Example 20]	100%	–	100%	–	–	–	100%	100%	4.1	–	–
Cc1cc(C(F)(C(F)(F)F)C(F)(F)F)cc(Br)c1-n1cc(-c2cnc(Cl)c(C(=O)N(C)C3CC3)c2)nn1 [Example 21]	100%	100%	100%	–	–	–	100%	100%	4.4	–	–
COc1ncc(-c2cn(-c3c(Cl)cc(C(F)(C(F)(F)F)C(F)(F)F)cc3Cl)nn2)cc1C(=O)NC1(C#N)CC1 [Example 4]	100%	100%	–	100%	–	100%	100%	100%	4.3	–	–
O=C(NC1CC1)c1cc(-c2cn(-c3c(Cl)cc(C(F)(C(F)(F)F)C(F)(F)F)cc3OC(F)(F)F)nn2)cnc1Cl [Example 33]	100%	100%	100%	–	–	–	100%	100%	4.1	–	–
N#CC1(NC(=O)c2cc(-c3cn(-c4c(Cl)cc(C(F)(C(F)(F)F)C(F)(F)F)cc4OC(F)(F)F)nn3)cnc2Cl)CC1 [Example 34]	100%	100%	–	100%	–	–	100%	100%	4.0	100%	–
N#CC1(NC(=O)c2cc(-c3cn(-c4c(Cl)cc(C(F)(C(F)(F)F)C(F)(F)F)cc4C(F)(F)F)nn3)cnc2Cl)CC1 [Example 17]	100%	100%	100%	100%	100%	–	100%	100%	3.9	100%	–
